Data from ChEMBL document CHEMBL1201862, “PubChem BioAssay data set” (2004).
The source made the active and inactive calls.

Tests used:
[1] = inhibitors of firefly luciferase expression or activity, dose response, H4 neuroglioma cells, luminescence (AID 1990); type: functional, cell-based
[2] = Luminescence Cell-Based Dose Response HTS to Identify Inhibitors of 5'UTR Stem-Loop Driven Prion Protein mRNA Translation in H4 Neuroglioblastoma Cells. [Related pubchem assays: 1827 (Project Summary), 1813 (Primary HTS)]; type: functional
[3] = biological target: T1, Heat shock factor protein 1 (Mus musculus, UniProt P38532); experiment: inhibition of MG132-induced HSE-luciferase signal, confirmation, cell-based, NIH3T3, luminescence, dose retest (AID 2382); type: functional;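 note: NIH3T3 fibroblasts with HSF1-driven luciferase reporter stressed by proteasome inhibitor MG132; luminescence from HSF1-driven luciferase expression after 8 hours of MG132 stress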
T1 sequence (P38532 whole entry): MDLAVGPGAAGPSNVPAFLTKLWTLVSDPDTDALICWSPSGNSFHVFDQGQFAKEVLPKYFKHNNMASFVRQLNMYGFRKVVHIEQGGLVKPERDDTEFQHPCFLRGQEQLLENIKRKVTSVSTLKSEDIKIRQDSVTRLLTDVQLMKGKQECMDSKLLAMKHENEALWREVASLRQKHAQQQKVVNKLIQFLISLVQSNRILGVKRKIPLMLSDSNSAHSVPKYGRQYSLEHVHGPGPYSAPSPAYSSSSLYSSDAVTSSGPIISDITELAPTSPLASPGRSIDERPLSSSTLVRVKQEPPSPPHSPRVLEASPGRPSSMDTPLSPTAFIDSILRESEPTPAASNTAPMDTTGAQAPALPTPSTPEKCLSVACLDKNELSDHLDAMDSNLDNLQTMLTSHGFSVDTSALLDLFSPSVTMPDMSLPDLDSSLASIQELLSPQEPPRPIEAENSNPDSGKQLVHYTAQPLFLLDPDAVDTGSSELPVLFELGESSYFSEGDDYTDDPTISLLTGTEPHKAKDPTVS

[4] = inhibitors of SNCA 5'UTR-driven reporter translation, confirmation, H4 neuroglioma cells, luminescence (AID 1988); type: functional, cell-based
Estrogen receptor = biological target: T2, Estrogen receptor (Homo sapiens, UniProt P03372);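 note: potency for inhibiting coactivator peptide recruitment to the receptor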
T2 sequence (P03372 whole entry): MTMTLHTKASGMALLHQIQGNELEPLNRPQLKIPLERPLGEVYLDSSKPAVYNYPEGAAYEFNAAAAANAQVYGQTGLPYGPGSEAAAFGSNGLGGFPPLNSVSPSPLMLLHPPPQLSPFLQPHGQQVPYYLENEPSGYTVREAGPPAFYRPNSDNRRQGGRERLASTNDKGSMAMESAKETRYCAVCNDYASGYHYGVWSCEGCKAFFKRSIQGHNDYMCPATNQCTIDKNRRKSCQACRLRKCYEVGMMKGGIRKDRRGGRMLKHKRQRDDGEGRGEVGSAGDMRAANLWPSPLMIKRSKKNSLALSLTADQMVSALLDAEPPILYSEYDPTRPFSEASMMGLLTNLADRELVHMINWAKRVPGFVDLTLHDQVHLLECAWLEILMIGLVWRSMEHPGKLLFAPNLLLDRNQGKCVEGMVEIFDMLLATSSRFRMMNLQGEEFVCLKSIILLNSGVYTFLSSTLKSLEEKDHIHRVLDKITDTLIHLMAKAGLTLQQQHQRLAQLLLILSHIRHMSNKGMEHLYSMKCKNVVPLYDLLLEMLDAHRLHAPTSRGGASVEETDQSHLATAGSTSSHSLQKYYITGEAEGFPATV

[5] = biological target: T3, Scavenger receptor class B member 1 (Mus musculus, UniProt Q61009); experiment: inhibitors of SR-BI mediated HDL lipid uptake, dose response, ldlA[mSR-BI] cells, fluorescence, cherry pick (AID 493194); type: functional, cell-based;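 note: cellular uptake of fluorescent DiI-labeled HDL measured as cell fluorescence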
T3 sequence (Q61009 whole entry): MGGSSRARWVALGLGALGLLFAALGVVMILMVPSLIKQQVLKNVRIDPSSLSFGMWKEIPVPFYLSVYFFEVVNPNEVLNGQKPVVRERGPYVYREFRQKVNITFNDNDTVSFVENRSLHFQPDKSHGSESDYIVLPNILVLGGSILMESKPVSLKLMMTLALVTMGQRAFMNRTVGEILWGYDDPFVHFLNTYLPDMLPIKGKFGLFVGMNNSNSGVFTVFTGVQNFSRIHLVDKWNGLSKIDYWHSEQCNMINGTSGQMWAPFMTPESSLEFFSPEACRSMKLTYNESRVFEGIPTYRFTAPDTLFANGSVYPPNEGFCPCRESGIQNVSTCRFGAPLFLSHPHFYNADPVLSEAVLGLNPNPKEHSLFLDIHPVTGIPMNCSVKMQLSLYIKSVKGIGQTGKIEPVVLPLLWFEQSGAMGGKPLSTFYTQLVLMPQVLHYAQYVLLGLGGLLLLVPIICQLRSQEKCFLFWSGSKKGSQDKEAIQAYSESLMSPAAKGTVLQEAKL

[6] = Shn3 3'UTR reporter inhibitors, dose response, cell-based, Clone20 osteoblasts, firefly luciferase, cherry-picked (AID 624132); type: functional;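 note: firefly luciferase luminescence from reporter carrying the Shn3 3'UTR in osteoblasts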
[7] = HepG2 cell cytotoxicity, dose response, cytotoxicity control for Shn3 inhibitor project, CellTiter-Glo, cherry-picked (AID 624134); type: functional, cell-based
[8] = control 3'UTR Renilla luciferase suppression, dose response, counter-screen for Shn3 inhibitor project, cell-based, Clone20-Shn3RL, cherry-picked (AID 624133); type: functional
[9] = tested on: Streptococcus sp. 'group A'; experiment: growth inhibition of control SK(-) GAS strain, dose response, counter-screen for streptokinase expression inhibitor project, luminescence, kanamycin, BacTiterGlo, confirmation (AID 1900); type: functional, organism-based
[10] = HIV-1 Env-mediated cell fusion inhibitors, dose response, CCR5-tropic Env (AID 2279); type: functional
Streptococcus = experiment: Group A Streptococcus viability loss, dose response, counter-screen for streptokinase expression inhibitor project, luminescence, BacTiterGlo (AID 1915); type: functional, organism-based;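 note: potency for reduction of bacterial viability or growth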
[11] = Cytotoxicity screening for potential Inhibitors of Bacterial Capsule Biogenesis. [Related pubchem assays (depositor defined):AID488970]; type: functional
[12] = biological target: T4, Small ubiquitin-related modifier 2 (Homo sapiens, UniProt P61956); experiment: SUMO2–SIM peptide binding inhibitors, dose response, selectivity assay for SUMO1 interaction inhibitor project, biochemical, fluorescence polarization, uHTS hits (AID 624385); type: functional; settings: read-out: IC50_Mean
T4 sequence (P61956 whole entry): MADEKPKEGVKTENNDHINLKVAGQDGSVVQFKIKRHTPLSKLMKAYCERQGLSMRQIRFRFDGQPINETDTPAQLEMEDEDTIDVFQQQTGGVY

[13] = biological target: T5, Small ubiquitin-related modifier 1 (Homo sapiens, UniProt P63165); experiment: inhibitors of SUMO1 peptide binding, dose response, biochemical, fluorescence polarization, uHTS hits (AID 624382); type: functional; settings: read-out: IC50_Mean
T5 sequence (P63165 whole entry): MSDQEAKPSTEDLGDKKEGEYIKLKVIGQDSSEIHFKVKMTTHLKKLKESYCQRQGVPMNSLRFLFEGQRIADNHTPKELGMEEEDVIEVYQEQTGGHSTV

[14] = biological target: T4, Small ubiquitin-related modifier 2; experiment: inhibitors of SUMO2 protein-protein interaction, dose response, selectivity assay for SUMO1 interaction inhibitor project, biochemical, FRET, human SUMO2, uHTS hits (AID 624384); type: functional; settings: read-out: IC50_Mean
[15] = biological target: T5, Small ubiquitin-related modifier 1; experiment: inhibitors of SUMO1 partner interactions, dose response, biochemical, FRET (AID 624383); type: functional; settings: read-out: IC50_Mean
Protein Rev = Protein Rev (Human immunodeficiency virus type 1 group M subtype B (isolate HXB2)(HIV-1), UniProt P04618); experiment: inhibitors of Rev binding to RRE RNA, dose response, biochemical, fluorescence polarization, HIV-1 (AID 434976); set-up: species or system Human immunodeficiency virus 1
Protein Rev, sequence (P04618 whole entry): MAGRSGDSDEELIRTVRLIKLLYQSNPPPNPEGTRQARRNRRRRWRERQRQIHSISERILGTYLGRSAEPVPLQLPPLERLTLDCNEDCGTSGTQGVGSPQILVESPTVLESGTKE

[16] = biological target: Female germline-specific tumor suppressor gld-1 (Caenorhabditis elegans, UniProt Q17339); experiment: inhibitors of GLD-1 binding to TGE RNA, dose response, biochemical, fluorescence polarization, C. elegans (AID 2802);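 note: fluorescence polarization of labeled TGE RNA bound by purified gld-1 protein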
Female germline-specific tumor suppressor gld-1, sequence (Q17339 whole entry, the tested form may be a part): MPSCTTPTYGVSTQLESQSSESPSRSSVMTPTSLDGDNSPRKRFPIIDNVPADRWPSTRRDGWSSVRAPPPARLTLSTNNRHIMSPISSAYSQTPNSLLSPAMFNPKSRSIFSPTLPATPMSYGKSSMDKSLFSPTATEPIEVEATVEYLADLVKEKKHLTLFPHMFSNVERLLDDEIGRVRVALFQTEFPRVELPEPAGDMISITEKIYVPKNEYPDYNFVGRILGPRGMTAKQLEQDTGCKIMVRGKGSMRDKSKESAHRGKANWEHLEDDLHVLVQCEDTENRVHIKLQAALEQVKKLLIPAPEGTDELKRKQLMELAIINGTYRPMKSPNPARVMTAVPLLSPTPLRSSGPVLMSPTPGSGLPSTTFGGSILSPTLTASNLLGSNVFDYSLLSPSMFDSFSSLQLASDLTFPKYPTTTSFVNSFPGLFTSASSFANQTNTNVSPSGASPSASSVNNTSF

[17] = biological target: T6, RNA-binding protein pos-1 (Caenorhabditis elegans, UniProt G5EF15); experiment: inhibitors of POS-1/mex-3 RNA binding, dose response, biochemical, fluorescence polarization (AID 1964);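 note: purified POS-1 fused to maltose binding protein made in E. coli; potency of compounds blocking POS-1 binding to fluorescent RNA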
T6 sequence (G5EF15 whole entry): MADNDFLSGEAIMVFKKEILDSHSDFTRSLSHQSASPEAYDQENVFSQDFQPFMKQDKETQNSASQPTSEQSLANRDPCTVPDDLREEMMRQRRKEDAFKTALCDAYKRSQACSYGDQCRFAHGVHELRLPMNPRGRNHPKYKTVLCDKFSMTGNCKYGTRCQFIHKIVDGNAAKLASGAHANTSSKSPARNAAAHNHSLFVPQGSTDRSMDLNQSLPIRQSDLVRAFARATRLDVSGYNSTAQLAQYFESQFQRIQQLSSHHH

[18] = biological target: T7, Zinc finger protein mex-5 (Caenorhabditis elegans, UniProt Q9XUB2); experiment: MEX-5/TCR-2 RNA interaction inhibitors, dose response, biochemical, C. elegans, fluorescence polarization (AID 1960)
T7 sequence (Q9XUB2 whole entry): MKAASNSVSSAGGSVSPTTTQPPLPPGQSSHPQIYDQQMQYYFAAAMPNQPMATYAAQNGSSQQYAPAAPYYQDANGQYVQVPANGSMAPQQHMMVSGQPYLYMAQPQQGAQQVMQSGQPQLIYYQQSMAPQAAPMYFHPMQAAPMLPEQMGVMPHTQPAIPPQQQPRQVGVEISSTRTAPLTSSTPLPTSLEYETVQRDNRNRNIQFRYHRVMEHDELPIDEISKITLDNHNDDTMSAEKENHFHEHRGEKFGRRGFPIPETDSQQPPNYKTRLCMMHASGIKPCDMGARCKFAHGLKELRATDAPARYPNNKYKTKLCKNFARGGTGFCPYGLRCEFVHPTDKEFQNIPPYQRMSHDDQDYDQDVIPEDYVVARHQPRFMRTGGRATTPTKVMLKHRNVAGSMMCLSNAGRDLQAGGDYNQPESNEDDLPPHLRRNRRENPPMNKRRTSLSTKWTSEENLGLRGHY

With CCOc1cc(N2CCOCC2)c(OCC)cc1NC(=O)c1cc(-c2ccco2)nc2ccccc12 the EC50 [1] was > 120 µM (not active), the EC50 [2] was > 120 µM (not active) and the EC50 [3] was 1.21 µM (active). The EC50 [4] was 7.84 µM (active), the IC50 (Estrogen receptor) was 14.7 µM (active) and the AC50 [5] was 46.2 µM (active). For the same molecule, the AC50 [6] was 8.94 µM (active), the AC50 [7] was 53.5 µM (active) and the AC50 [8] was 9.78 µM (active).
For O=C(COc1ccc(Cl)cc1Cl)Nc1ccc(C(=O)Nc2ccccc2C(=O)O)cc1, the EC50 [9] was 3.72 µM (active), the IC50 [10] was > 50 µM (active) and the EC50 (Streptococcus) was > 150 µM (not active). The CC50 [11] was 45.3 µM (active), the IC50 [12] was 13.3 µM (active) and the IC50 [13] was 2.7 µM (active). The IC50 [14] was 48.1 µM (inactive) and the IC50 [15] was 11.3 µM (active).
For CCCn1c(N)c(N(CCOC)C(=O)Cc2ccc(S(=O)(=O)N3CCOCC3)s2)c(=O)[nH]c1=O, the IC50 (Protein Rev) was 39.6 µM (not active), the IC50 [16] was 16.2 µM (inactive) and the EC50 [17] was > 300 µM (not active). For the same molecule, the EC50 [18] was > 300 µM (not active).
